Measured values from US10022374B2, “Certain protein kinase inhibitors” (Shanghai Fochon Pharmaceutical Co., Ltd., priority 2013, dated 2018).
Read-outs that look alike come from different tables or passages of the source.

Experiments:
[1] = system: A-375 cells; test: Inhibition of cell proliferation (MTS), A-375 cells; format: cell-based; conditions: A-375 cells, 3000 cells/well, 72 h, MTS, absorbance 490 nm, read-out: A375 IC50
Description: (§1) MTS testing kit was purchased from Promega. The DMEM, RPMI-1640 and Fetal bovine serum were purchased from Gibco. Dimethyl sulfoxide (DMSO) was purchased from Sigma.
(§2) To investigate whether a compound is able to inhibit the activity of MEK in cells, a mechanism-based assay using A-375 and HT-29 cell was developed. In this assay, inhibition of MEK was detected by the inhibition of A-375 and HT-29 cells proliferation. A-375 and HT-29 cells were cultured in culture flasks to 40-80% confluence respectively in DMEM and RPMI-1640 plus 10% fetal bovine serum. Cells were collected and plated onto 96-well plates at desired cell density (A-375: 3000 cells/well; HT-29: 5000 cells/well). Plates were incubated overnight at 37° C., with 5% CO2 to adhere. Compounds were added to the plates. The final compound concentrations were […], 12.35, 4.12, 1.37, 0.46 and 0.15 nM, respectively. Place plates at 37° C., with 5% CO2 for 72 h. 10 μl MTS were added to each well and incubate the plates for exactly 2 hours. Absorbance was measured at 490 nm. […] was calculated using GraphPad Prism 5.0.

[2] = system: HT-29 cells; test: Inhibition of cell proliferation (MTS), HT-29 cells; format: cell-based; conditions: HT-29 cells, 5000 cells/well, 72 h, MTS, absorbance 490 nm, read-out: HT29 IC50
Description: as §1, §2

Structure (SMILES) | IC50 ([1]; Homo sapiens, A-375, 72 h) [nM] | IC50 ([2]; Homo sapiens, HT-29, 72 h) [nM] | IC50 [1] [nM] | IC50 [2] [nM]
CCCn1nc(-c2cccc(NS(=O)(=O)C3CC3)c2)c2c(c(Nc3ccc(I)cc3F)c(F)c(=O)n2C)c1=O [Example 17, N-(3-(3-fluoro-4-(2-fluoro-4-iodophenylamino)-1-methyl-2,5-dioxo-6-propyl-1,2,5,6-tetrahydropyrido[2,3-d]pyridazin-8-yl)phenyl)cyclopropanesulfonamide] | 12.8 | 21.6 |  | 
COCCn1nc(-c2cccc(NS(=O)(=O)C3CC3)c2)c2c(c(Nc3ccc(I)cc3F)c(F)c(=O)n2C)c1=O [Example 18, N-(3-(3-fluoro-4-(2-fluoro-4-iodophenylamino)-6-(2-methoxyethyl)-1-methyl-2,5-dioxo-1,2,5,6-tetrahydropyrido[2,3-d]pyridazin-8-yl)phenyl)cyclopropanesulfonamide] | 30.2 | 23.6 |  | 
Cn1c(=O)c(F)c(Nc2ccc(I)cc2F)c2c(=O)n(CCF)nc(-c3cccc(NS(=O)(=O)C4CC4)c3)c21 [Example 19, N-(3-(3-fluoro-4-(2-fluoro-4-iodophenylamino)-6-(2-fluoroethyl)-1-methyl-2,5-dioxo-1,2,5,6-tetrahydropyrido[2,3-d]pyridazin-8-yl)phenyl)cyclopropanesulfonamide] | 2.4 | 4.2 |  | 
Cn1c(=O)c(F)c(Nc2ccc(I)cc2F)c2c(=O)n(CC(F)F)nc(-c3cccc(NS(=O)(=O)C4CC4)c3)c21 [Example 20, N-(3-(6-(2,2-difluoroethyl)-3-fluoro-4-(2-fluoro-4-iodophenylamino)-1-methyl-2,5-dioxo-1,2,5,6-tetrahydropyrido[2,3-d]pyridazin-8-yl)phenyl)cyclopropanesulfonamide] | 6.4 | 7.7 |  | 
CC(=O)Nc1cccc(-c2nn(C)c(=O)c3c(Nc4ccc(I)cc4F)c(F)c(=O)n(C)c23)c1 [Example 21, N-(3-(3-fluoro-4-(2-fluoro-4-iodophenylamino)-1,6-dimethyl-2,5-dioxo-1,2,5,6-tetrahydropyrido[2,3-d]pyridazin-8-yl)phenyl)acetamide] | 3.9 | < 1 |  | 
Cn1nc(-c2cccc(NS(C)(=O)=O)c2)c2c(c(Nc3ccc(I)cc3F)c(F)c(=O)n2C)c1=O [Example 22, N-(3-(3-fluoro-4-(2-fluoro-4-iodophenylamino)-1,6-dimethyl-2,5-dioxo-1,2,5,6-tetrahydropyrido[2,3-d]pyridazin-8-yl)phenyl)methanesulfonamide] | < 1 | < 1 |  | 
Cn1nc(-c2cccc(NS(=O)(=O)C3CC3)c2)c2c(c(Nc3ccc(I)cc3F)c(F)c(=O)n2C)c1=O [Example 23, N-(3-(3-fluoro-4-(2-fluoro-4-iodophenylamino)-1,6-dimethyl-2,5-dioxo-1,2,5,6-tetrahydropyrido[2,3-d]pyridazin-8-yl)phenyl)cyclopropanesulfonamide] | < 1 | < 1 |  | 
CCn1nc(-c2cccc(NC(C)=O)c2)c2c(c(Nc3ccc(I)cc3F)c(F)c(=O)n2C)c1=O [Example 24, N-(3-(6-ethyl-3-fluoro-4-(2-fluoro-4-iodophenylamino)-1-methyl-2,5-dioxo-1,2,5,6-tetrahydropyrido[2,3-d]pyridazin-8-yl)phenyl)acetamide] | 13.7 | 6.1 |  | 
CCn1nc(-c2cccc(NS(C)(=O)=O)c2)c2c(c(Nc3ccc(I)cc3F)c(F)c(=O)n2C)c1=O [Example 25, N-(3-(6-ethyl-3-fluoro-4-(2-fluoro-4-iodophenylamino)-1-methyl-2,5-dioxo-1,2,5,6-tetrahydropyrido[2,3-d]pyridazin-8-yl)phenyl)methanesulfonamide] | < 1 | < 1 |  | 
CCn1nc(-c2cccc(NS(=O)(=O)C(C)C)c2)c2c(c(Nc3ccc(I)cc3F)c(F)c(=O)n2C)c1=O [Example 26, N-(3-(6-ethyl-3-fluoro-4-(2-fluoro-4-iodophenylamino)-1-methyl-2,5-dioxo-1,2,5,6-tetrahydropyrido[2,3-d]pyridazin-8-yl)phenyl)propane-2-sulfonamide] | 11.9 | < 1 |  | 
CCn1nc(-c2cccc(NS(=O)(=O)C3CC3)c2)c2c(c(Nc3ccc(I)cc3F)c(F)c(=O)n2C)c1=O [Example 27, N-(3-(6-ethyl-3-fluoro-4-(2-fluoro-4-iodophenylamino)-1-methyl-2,5-dioxo-1,2,5,6-tetrahydropyrido[2,3-d]pyridazin-8-yl)phenyl)cyclopropanesulfonamide] | < 1 | < 1 |  | 
C=CCn1nc(-c2cccc(NC(C)=O)c2)c2c(c(Nc3ccc(I)cc3F)c(F)c(=O)n2C)c1=O [Example 28, N-(3-(6-allyl-3-fluoro-4-(2-fluoro-4-iodophenylamino)-1-methyl-2,5-dioxo-1,2,5,6-tetrahydropyrido[2,3-d]pyridazin-8-yl)phenyl)acetamide] | 1.6 | 6.4 |  | 
C=CCn1nc(-c2cccc(NC(=O)CC)c2)c2c(c(Nc3ccc(I)cc3F)c(F)c(=O)n2C)c1=O [Example 29, N-(3-(6-allyl-3-fluoro-4-(2-fluoro-4-iodophenylamino)-1-methyl-2,5-dioxo-1,2,5,6-tetrahydropyrido[2,3-d]pyridazin-8-yl)phenyl)propionamide] | 51.2 | 106 |  | 
C=CCn1nc(-c2cccc(NC(=O)C3CC3)c2)c2c(c(Nc3ccc(I)cc3F)c(F)c(=O)n2C)c1=O [Example 30, N-(3-(6-allyl-3-fluoro-4-(2-fluoro-4-iodophenylamino)-1-methyl-2,5-dioxo-1,2,5,6-tetrahydropyrido[2,3-d]pyridazin-8-yl)phenyl)cyclopropanecarboxamide] | 80.7 | 76.7 |  | 
C=CCn1nc(-c2cccc(NS(C)(=O)=O)c2)c2c(c(Nc3ccc(I)cc3F)c(F)c(=O)n2C)c1=O [Example 31, N-(3-(6-allyl-3-fluoro-4-(2-fluoro-4-iodophenylamino)-1-methyl-2,5-dioxo-1,2,5,6-tetrahydropyrido[2,3-d]pyridazin-8-yl)phenyl)methanesulfonamide] | 1.1 | 7.4 |  | 
C=CCn1nc(-c2cccc(NS(=O)(=O)CC)c2)c2c(c(Nc3ccc(I)cc3F)c(F)c(=O)n2C)c1=O [Example 32, N-(3-(6-allyl-3-fluoro-4-(2-fluoro-4-iodophenylamino)-1-methyl-2,5-dioxo-1,2,5,6-tetrahydropyrido[2,3-d]pyridazin-8-yl)phenyl)ethanesulfonamide] | 36.2 | 12.7 |  | 
C=CCn1nc(-c2cccc(NS(=O)(=O)C(C)C)c2)c2c(c(Nc3ccc(I)cc3F)c(F)c(=O)n2C)c1=O [Example 33, N-(3-(6-allyl-3-fluoro-4-(2-fluoro-4-iodophenylamino)-1-methyl-2,5-dioxo-1,2,5,6-tetrahydropyrido[2,3-d]pyridazin-8-yl)phenyl)propane-2-sulfonamide] | 12.6 | 7.2 |  | 
C=CCn1nc(-c2cccc(NS(=O)(=O)C3CC3)c2)c2c(c(Nc3ccc(I)cc3F)c(F)c(=O)n2C)c1=O [Example 34, N-(3-(6-allyl-3-fluoro-4-(2-fluoro-4-iodophenylamino)-1-methyl-2,5-dioxo-1,2,5,6-tetrahydropyrido[2,3-d]pyridazin-8-yl)phenyl)cyclopropanesulfonamide] |  |  | 4.2 | 4.6
C=CCn1nc(-c2cccc(NC(=O)C(C)C)c2)c2c(c(Nc3ccc(I)cc3F)c(F)c(=O)n2C)c1=O [Example 35, N-(3-(6-allyl-3-fluoro-4-(2-fluoro-4-iodophenylamino)-1-methyl-2,5-dioxo-1,2,5,6-tetrahydropyrido[2,3-d]pyridazin-8-yl)phenyl)isobutyramide] | 26.3 | 22.6 |  | 
C=CCn1nc(-c2cccc(NC(C)=O)c2)c2c(c(Nc3ccc(Br)cc3F)c(F)c(=O)n2C)c1=O [Example 36, N-(3-(6-allyl-4-(4-bromo-2-fluorophenylamino)-3-fluoro-1-methyl-2,5-dioxo-1,2,5,6-tetrahydropyrido[2,3-d]pyridazin-8-yl)phenyl)acetamide] | 341 | 427 |  | 
C=CCn1nc(-c2cccc(NS(C)(=O)=O)c2)c2c(c(Nc3ccc(Br)cc3F)c(F)c(=O)n2C)c1=O [Example 37, N-(3-(6-allyl-4-(4-bromo-2-fluorophenylamino)-3-fluoro-1-methyl-2,5-dioxo-1,2,5,6-tetrahydropyrido[2,3-d]pyridazin-8-yl)phenyl)methanesulfonamide] | 32.4 | 42.7 |  | 
CC(=O)Nc1cccc(-c2nn(CC(O)CO)c(=O)c3c(Nc4ccc(I)cc4F)c(F)c(=O)n(C)c23)c1 (centres unmarked) [Example 40, N-(3-(6-(2,3-dihydroxypropyl)-3-fluoro-4-(2-fluoro-4-iodophenylamino)-1-methyl-2,5-dioxo-1,2,5,6-tetrahydropyrido[2,3-d]pyridazin-8-yl)phenyl)acetamide] | 2.5 | 1.9 |  | 
